Where “and” joins values, the source holds several entries; their conditions need not be identical. Identical values can stand only once. Inconclusive results and toxic doses are left out.
System: P388 leukemia ip, CD2F1 mice, survival T/C
Experiment: NCI In Vivo Anticancer Drug Screen. Data for tumor model P388 Leukemia (intraperitoneal) in CD2F1 (CDF1) mice
Conditions: endpoint: median survival time, higher = longer survival
Summary of the method: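 Mice carrying the transplanted tumor received test compound or vehicle. Survival was recorded in each group, and the value is the treated-group measurement divided by that of the vehicle-treated control group.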

[1] = dose: 60.0 mg/kg/injection, schedule: Q01DX005 (ip), vehicle: saline with Tween-80
[2] = dose: 120.0 mg/kg/injection, schedule: Q01DX005 (ip), vehicle: saline with Tween-80
[3] = dose: 240.0 mg/kg/injection, schedule: Q01DX005 (ip), vehicle: saline with Tween-80
[4] = dose: 50.0 mg/kg/injection, schedule: Q01DX009 (ip), vehicle: saline with Tween-80

## Cc1c2cc[n+](C)cc2c(C)c2c1[nH]c1ccccc12
dose: 1.25 mg/kg/injection, schedule: Q04DX002 (ip), vehicle: water
  T/C: 103 % of control and 117 % of control
dose: 2.5 mg/kg/injection, schedule: Q04DX002 (ip), vehicle: water
  T/C: 114 % of control and 121 % of control
dose: 12.5 mg/kg/injection, schedule: Q04DX002 (ip), vehicle: distilled water + Tween-80
  T/C: 122 % of control

## COc1ccc(C2=NC(C)(C)CO2)cc1C
dose: 50.0 mg/kg/injection, schedule: Q01DX005 (ip), vehicle: saline with Tween-80
  T/C: 103 % of control
dose: 100.0 mg/kg/injection, schedule: Q01DX005 (ip), vehicle: saline with Tween-80
  T/C: 103 % of control
dose: 200.0 mg/kg/injection, schedule: Q01DX005 (ip), vehicle: saline with Tween-80
  T/C: 94 % of control

## NC(=S)N/N=C/c1cn(-c2ccc([N+](=O)[O-])cc2)cn1
dose: 25.0 mg/kg/injection, schedule: Q04DX003 (ip), vehicle: Klucel (hydroxypropylcellulose) (HPC)
  T/C: 86 % of control
dose: 50.0 mg/kg/injection, schedule: Q04DX003 (ip), vehicle: Klucel (hydroxypropylcellulose) (HPC)
  T/C: 86 % of control
dose: 100.0 mg/kg/injection, schedule: Q04DX003 (ip), vehicle: Klucel (hydroxypropylcellulose) (HPC)
  T/C: 94 % of control

## O=C1CCC(Cc2ccccc2Br)C(=O)N1 (stereo not drawn)
[1]
  T/C: 99 % of control
[2]
  T/C: 107 % of control
[3]
  T/C: 102 % of control

## COc1cc(/C=C2\N=C(c3cc(OC)c(OC)c(OC)c3)OC2=O)ccc1O
[4]
  T/C: 91 % of control
dose: 100.0 mg/kg/injection, schedule: Q01DX009 (ip), vehicle: saline with Tween-80
  T/C: 95 % of control
dose: 200.0 mg/kg/injection, schedule: Q01DX009 (ip), vehicle: saline with Tween-80
  T/C: 105 % of control

## COc1cccc2c1C(=O)c1c(O)c3c(c(O)c1C2=O)C[C@@](O)(C(C)=O)CC3OC1CC(NC2CC(=O)N(c3ccccc3)C2=O)C(O)C(C)O1 (stereo partly drawn)
dose: 6.25 mg/kg/injection, schedule: Q04DX003 (ip), vehicle: water
  T/C: 108 % of control
dose: 12.5 mg/kg/injection, schedule: Q04DX003 (ip), vehicle: water
  T/C: 103 % of control
dose: 25.0 mg/kg/injection, schedule: Q04DX003 (ip), vehicle: water
  T/C: 103 % of control
dose: 50.0 mg/kg/injection, schedule: Q04DX003 (ip), vehicle: water
  T/C: 108 % of control

## Oc1ccc(Nc2ccnc3cc(Cl)ccc23)cc1CN(CCCl)CCCl
dose: 0.16 mg/kg/injection, schedule: Q01DX009 (ip), vehicle: saline
  T/C: 119 % of control
dose: 0.31 mg/kg/injection, schedule: Q01DX009 (ip), vehicle: saline
  T/C: 123 % of control
dose: 0.63 mg/kg/injection, schedule: Q01DX009 (ip), vehicle: saline
  T/C: 150 % of control
dose: 1.25 mg/kg/injection, schedule: Q01DX009 (ip), vehicle: saline
  T/C: 101 % of control
dose: 2.5 mg/kg/injection, schedule: Q01DX009 (ip), vehicle: saline
  T/C: 153 % of control and 156 % of control

## CSc1nc(N)n2nc(C3CC3)cc2n1
[1]
  T/C: 102 % of control
[2]
  T/C: 100 % of control
[3]
  T/C: 100 % of control

## CC(C)(C)NSc1nc2ccccc2s1
dose: 12.5 mg/kg/injection, schedule: Q01DX009 (ip), vehicle: saline with Tween-80
  T/C: 109 % of control
dose: 12.5 mg/kg/injection, schedule: Q04DX003 (ip), vehicle: saline with Tween-80
  T/C: 100 % of control
dose: 25.0 mg/kg/injection, schedule: Q01DX009 (ip), vehicle: saline with Tween-80
  T/C: 100 % of control
dose: 25.0 mg/kg/injection, schedule: Q04DX003 (ip), vehicle: saline with Tween-80
  T/C: 95 % of control
[4]
  T/C: 100 % of control
dose: 50.0 mg/kg/injection, schedule: Q04DX003 (ip), vehicle: saline with Tween-80
  T/C: 100 % of control and 87 % of control

## CC[C@@]12C[C@H]3CN(CCc4c([nH]c5ccccc45)[C@@](C(=O)OC)(c4cc5c(cc4OC)N(C)[C@H]4[C@@](O)(C(=O)OC)[C@H](OC(C)=O)[C@]6(CC)C=CCN7CC[C@]54[C@@H]76)C3O1)C2 (stereo partly drawn)
dose: 0.5 mg/kg/injection, schedule: Q01DX001 (ip), vehicle: distilled water + Tween-80
  T/C: 103 % of control
dose: 0.5 mg/kg/injection, schedule: Q01DX001 (ip), vehicle: water
  T/C: 98 % of control
dose: 1.0 mg/kg/injection, schedule: Q01DX001 (ip), vehicle: distilled water + Tween-80
  T/C: 100 % of control and 101 % of control
dose: 1.0 mg/kg/injection, schedule: Q01DX001 (ip), vehicle: water
  T/C: 96 % of control
dose: 1.0 mg/kg/injection, schedule: Q01DX009 (ip), vehicle: distilled water + alcohol
  T/C: 176 % of control
dose: 2.0 mg/kg/injection, schedule: Q01DX001 (ip), vehicle: distilled water + Tween-80
  T/C: 100 % of control
dose: 2.0 mg/kg/injection, schedule: Q01DX001 (ip), vehicle: water
  T/C: 97 % of control
dose: 2.0 mg/kg/injection, schedule: Q01DX009 (ip), vehicle: distilled water + alcohol
  T/C: 176 % of control
dose: 4.0 mg/kg/injection, schedule: Q01DX001 (ip), vehicle: distilled water + Tween-80
  T/C: 100 % of control and 108 % of control
dose: 4.0 mg/kg/injection, schedule: Q01DX001 (ip), vehicle: water
  T/C: 105 % of control
dose: 4.0 mg/kg/injection, schedule: Q01DX009 (ip), vehicle: distilled water + alcohol
  T/C: 168 % of control
dose: 8.0 mg/kg/injection, schedule: Q01DX001 (ip), vehicle: distilled water + Tween-80
  T/C: 100 % of control and 93 % of control
dose: 8.0 mg/kg/injection, schedule: Q01DX001 (ip), vehicle: water
  T/C: 108 % of control
dose: 16.0 mg/kg/injection, schedule: Q01DX001 (ip), vehicle: distilled water + Tween-80
  T/C: 96 % of control
dose: 32.0 mg/kg/injection, schedule: Q01DX001 (ip), vehicle: distilled water + Tween-80
  T/C: 102 % of control

— PubChem BioAssay AID330 (DTP/NCI, 2004)
